Source: ChEMBL document CHEMBL1909046, “DrugMatrix in vitro pharmacology data”

Columns and labels:
[1] = biological target: T1, Alpha-1D adrenergic receptor (Homo sapiens, UniProt P25100); format: cell membranes, HEK293, Membrane; conditions: hek293; also: in other assays of this panel Not Active means under 50% inhibition at 10 µM
T1 sequence (P25100 whole entry): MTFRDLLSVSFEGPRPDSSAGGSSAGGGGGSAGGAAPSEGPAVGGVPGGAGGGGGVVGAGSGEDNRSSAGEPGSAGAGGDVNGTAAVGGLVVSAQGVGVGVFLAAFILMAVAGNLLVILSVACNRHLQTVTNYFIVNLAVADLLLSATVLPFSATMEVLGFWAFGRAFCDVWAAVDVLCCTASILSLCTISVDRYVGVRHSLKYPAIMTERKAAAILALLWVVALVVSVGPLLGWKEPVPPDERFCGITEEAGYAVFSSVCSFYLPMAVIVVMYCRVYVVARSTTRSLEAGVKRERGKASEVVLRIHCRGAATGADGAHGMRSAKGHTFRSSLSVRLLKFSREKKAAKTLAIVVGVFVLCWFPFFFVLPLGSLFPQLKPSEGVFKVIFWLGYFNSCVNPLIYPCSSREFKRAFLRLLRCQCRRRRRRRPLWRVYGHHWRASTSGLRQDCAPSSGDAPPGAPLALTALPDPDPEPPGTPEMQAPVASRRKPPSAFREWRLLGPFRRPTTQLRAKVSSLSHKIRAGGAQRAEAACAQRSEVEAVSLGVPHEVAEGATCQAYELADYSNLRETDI

[2] = biological target: T2, Vasoactive intestinal polypeptide receptor 1 (Homo sapiens, UniProt P32241); format: cell membranes, Membrane; conditions: ht-29; also: in other assays of this panel Not Active means under 50% inhibition at 10 µM
T2 sequence (P32241 whole entry): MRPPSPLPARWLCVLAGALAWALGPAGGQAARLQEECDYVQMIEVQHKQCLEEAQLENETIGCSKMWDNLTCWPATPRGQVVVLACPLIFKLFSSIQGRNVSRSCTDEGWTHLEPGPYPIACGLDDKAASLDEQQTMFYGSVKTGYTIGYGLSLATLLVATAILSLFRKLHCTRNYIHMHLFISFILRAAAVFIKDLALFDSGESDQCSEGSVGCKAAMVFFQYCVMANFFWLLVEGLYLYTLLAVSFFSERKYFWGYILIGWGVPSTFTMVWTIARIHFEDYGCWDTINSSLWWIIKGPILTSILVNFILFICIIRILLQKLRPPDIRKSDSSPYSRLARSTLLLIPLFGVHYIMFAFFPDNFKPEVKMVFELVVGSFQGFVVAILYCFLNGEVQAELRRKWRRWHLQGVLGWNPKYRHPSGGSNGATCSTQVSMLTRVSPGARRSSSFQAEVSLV

Vasopressin V1a receptor = Vasopressin V1a receptor (Homo sapiens, UniProt P37288); format: cell membranes, Membrane; conditions: hek293; also: in other assays of this panel Not Active means under 50% inhibition at 10 µM
Chain of Vasopressin V1a receptor (P37288 whole entry): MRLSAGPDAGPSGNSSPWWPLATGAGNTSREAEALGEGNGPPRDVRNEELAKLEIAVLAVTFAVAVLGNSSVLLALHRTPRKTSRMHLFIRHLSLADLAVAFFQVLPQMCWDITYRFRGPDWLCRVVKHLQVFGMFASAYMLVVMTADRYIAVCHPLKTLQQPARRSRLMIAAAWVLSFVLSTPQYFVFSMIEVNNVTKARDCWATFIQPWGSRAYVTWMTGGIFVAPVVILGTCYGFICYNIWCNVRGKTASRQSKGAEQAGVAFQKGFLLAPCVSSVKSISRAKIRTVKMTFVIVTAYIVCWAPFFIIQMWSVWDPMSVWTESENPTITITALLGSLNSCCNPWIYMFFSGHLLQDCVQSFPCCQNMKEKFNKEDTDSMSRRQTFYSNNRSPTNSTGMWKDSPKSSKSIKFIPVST

[3] = biological target: T3, Cholecystokinin receptor type A (Homo sapiens, UniProt P32238); format: cell membranes, Membrane; conditions: 1321-n1; also: in other assays of this panel Not Active means under 50% inhibition at 10 µM
T3 sequence (P32238 whole entry): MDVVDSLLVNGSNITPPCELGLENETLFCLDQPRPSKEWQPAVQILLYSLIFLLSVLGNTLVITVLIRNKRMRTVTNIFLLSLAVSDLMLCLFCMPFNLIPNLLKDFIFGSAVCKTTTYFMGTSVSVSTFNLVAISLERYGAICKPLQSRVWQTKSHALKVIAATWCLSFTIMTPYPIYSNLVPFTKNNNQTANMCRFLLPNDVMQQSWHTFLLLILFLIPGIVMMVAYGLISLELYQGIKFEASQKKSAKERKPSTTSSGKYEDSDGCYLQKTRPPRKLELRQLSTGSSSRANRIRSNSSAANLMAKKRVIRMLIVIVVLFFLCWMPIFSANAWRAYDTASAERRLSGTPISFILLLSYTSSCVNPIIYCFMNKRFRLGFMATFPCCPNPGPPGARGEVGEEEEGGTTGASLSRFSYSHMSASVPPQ

D(4) dopamine receptor = biological target: T4, D(4) dopamine receptor (Homo sapiens, UniProt P21917); test: DRUGMATRIX: Dopamine D4.2 radioligand binding (ligand: [3H] Spiperone); format: cell membranes, CHO-K1, Membrane; conditions: cho-k1; Not Active = under 50% inhibition at 10 µM
T4 sequence (P21917 whole entry): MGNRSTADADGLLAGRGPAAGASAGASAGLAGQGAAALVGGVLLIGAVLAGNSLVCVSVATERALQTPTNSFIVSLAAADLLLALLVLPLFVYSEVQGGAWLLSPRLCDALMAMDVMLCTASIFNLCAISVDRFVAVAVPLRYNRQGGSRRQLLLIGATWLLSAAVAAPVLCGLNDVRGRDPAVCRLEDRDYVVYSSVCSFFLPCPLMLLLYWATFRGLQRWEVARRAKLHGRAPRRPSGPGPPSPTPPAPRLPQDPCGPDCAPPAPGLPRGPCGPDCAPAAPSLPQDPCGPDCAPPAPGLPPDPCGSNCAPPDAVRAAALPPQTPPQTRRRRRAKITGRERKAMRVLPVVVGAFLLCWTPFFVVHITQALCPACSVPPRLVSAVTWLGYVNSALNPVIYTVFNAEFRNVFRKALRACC

[4] = biological target: T5, Muscarinic acetylcholine receptor M5 (Homo sapiens, UniProt P08912); format: cell membranes, CHO-K1, Membrane; conditions: cho-k1; also: in other assays of this panel Not Active means under 50% inhibition at 10 µM
T5 sequence (P08912 whole entry): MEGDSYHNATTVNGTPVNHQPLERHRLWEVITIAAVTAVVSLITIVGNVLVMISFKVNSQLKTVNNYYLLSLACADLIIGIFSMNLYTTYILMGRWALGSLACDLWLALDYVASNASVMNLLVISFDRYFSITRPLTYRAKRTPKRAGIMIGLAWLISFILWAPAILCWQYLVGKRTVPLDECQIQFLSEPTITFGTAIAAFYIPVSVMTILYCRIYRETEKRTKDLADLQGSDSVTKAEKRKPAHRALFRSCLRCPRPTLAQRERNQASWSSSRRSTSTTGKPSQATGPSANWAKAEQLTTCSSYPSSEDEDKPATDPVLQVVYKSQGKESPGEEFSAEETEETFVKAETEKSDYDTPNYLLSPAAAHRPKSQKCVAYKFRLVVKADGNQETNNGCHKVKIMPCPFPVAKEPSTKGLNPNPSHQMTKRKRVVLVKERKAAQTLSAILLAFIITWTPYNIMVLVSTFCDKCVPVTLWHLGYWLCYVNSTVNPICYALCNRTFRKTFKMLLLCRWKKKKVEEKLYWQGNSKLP

Molecule	IC50 [1]	IC50 [2]	IC50 (Vasopressin V1a receptor)	IC50 [3]	IC50 (D(4) dopamine receptor)	IC50 [4]	Ki [1]	Ki [2]	Ki (Vasopressin V1a receptor)	Ki [3]	Ki (D(4) dopamine receptor)	IC50 ([4]; read-out: IC50)	Ki ([4]; read-out: Ki)	Ki [4]
CN1CCN(CCCN2c3ccccc3Sc3ccc(C(F)(F)F)cc32)CC1 [TRIFLUOPERAZINE]	Not Active	Not Active	Not Active	Not Active	Not Active	Not Active	–	–	–	–	–	–	–	–
TRANSPLATIN	Not Active	Not Active	Not Active	Not Active	Not Active	–	Not Active	Not Active	Not Active	Not Active	Not Active	5.93 µM	4.26 µM	–
ZIRCONIUM(IV) CHLORIDE	Not Active	Not Active	Not Active	Not Active	Not Active	Not Active	Not Active	Not Active	Not Active	Not Active	Not Active	–	–	Not Active
